In ChEMBL document CHEMBL2413039, “Novel N-hydroxyfurylacrylamide-based histone deacetylase (HDAC) inhibitors with branched CAP group (Part 2)” (Bioorg Med Chem, 2013):
pEC50, pIC50: −log10 of the molar value.

What was measured:
HepG2 = test: cells; type: functional, cell-based; details: Homo sapiens, HepG2, 48 h
A549 = test: cells; type: functional, cell-based; details: Homo sapiens, A549, 48 h
HCT-116 = test: cells; type: functional, cell-based; details: Homo sapiens, HCT-116, 48 h
PC-3 = test: cells; type: functional, cell-based; details: Homo sapiens, PC-3, 48 h
Histone deacetylase = type: protein assay, Homo sapiens; details: hela
Homo sapiens [1] = species on record: Homo sapiens; test: Selectivity ratio of IC50 for human recombinant HDAC4 to human recombinant HDAC6
Homo sapiens [2] = species on record: Homo sapiens; test: Selectivity ratio of IC50 for human recombinant HDAC1 to human recombinant HDAC6
Histone deacetylase 4 = Histone deacetylase 4 (Homo sapiens, UniProt P56524); test: Inhibition of human recombinant HDAC4 using p53 residues 379-382 (RHKKAc) as substrate
Chain of Histone deacetylase 4 (P56524 whole entry, the tested form may be a part): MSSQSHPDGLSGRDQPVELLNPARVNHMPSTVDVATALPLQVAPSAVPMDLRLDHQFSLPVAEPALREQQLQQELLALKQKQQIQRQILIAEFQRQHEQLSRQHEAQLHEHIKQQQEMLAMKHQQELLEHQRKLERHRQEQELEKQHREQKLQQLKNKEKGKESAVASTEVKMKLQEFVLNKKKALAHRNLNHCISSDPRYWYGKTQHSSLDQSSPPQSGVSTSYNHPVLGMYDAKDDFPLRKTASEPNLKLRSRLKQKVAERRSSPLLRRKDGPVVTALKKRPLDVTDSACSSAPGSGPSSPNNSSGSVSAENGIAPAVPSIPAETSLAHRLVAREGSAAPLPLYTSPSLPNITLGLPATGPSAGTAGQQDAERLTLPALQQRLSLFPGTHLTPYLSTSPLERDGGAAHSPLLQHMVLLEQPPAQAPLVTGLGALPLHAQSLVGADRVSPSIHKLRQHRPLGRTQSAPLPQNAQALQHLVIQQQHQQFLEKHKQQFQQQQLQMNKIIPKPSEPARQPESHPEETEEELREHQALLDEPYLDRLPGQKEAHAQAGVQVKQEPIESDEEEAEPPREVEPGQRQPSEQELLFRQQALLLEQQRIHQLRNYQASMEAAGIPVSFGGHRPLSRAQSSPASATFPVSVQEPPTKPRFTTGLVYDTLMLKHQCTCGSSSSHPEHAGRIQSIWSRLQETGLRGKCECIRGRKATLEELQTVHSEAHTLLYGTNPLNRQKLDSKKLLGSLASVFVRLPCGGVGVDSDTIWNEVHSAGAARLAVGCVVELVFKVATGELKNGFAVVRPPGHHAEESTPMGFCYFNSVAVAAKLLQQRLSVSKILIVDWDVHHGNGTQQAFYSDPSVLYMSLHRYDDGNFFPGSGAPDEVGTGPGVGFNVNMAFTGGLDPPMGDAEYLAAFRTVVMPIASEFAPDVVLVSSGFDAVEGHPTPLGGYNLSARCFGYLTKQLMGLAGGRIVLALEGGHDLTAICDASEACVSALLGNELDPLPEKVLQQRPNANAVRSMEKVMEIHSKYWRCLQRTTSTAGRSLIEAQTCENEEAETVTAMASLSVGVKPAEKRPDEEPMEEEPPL

Histone deacetylase 1 = Histone deacetylase 1 (Homo sapiens, UniProt Q13547); test: Inhibition of human recombinant HDAC1 using p53 residues 379-382 (RHKKAc) as substrate
Chain of Histone deacetylase 1 (Q13547 whole entry, the tested form may be a part): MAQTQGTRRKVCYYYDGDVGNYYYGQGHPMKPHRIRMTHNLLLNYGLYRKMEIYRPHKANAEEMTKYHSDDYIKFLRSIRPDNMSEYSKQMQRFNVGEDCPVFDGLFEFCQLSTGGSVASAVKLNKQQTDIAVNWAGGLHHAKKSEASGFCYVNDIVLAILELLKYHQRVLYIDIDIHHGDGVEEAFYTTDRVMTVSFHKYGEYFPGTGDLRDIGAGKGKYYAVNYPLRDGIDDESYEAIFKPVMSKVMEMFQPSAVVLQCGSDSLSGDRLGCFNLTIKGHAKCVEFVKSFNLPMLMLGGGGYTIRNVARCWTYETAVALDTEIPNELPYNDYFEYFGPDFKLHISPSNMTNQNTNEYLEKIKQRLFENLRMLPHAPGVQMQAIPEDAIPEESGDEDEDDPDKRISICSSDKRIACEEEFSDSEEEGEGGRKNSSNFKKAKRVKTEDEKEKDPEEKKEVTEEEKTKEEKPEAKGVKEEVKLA

[3] = target: T1, Protein deacetylase HDAC6 (Homo sapiens, UniProt Q9UBN7)
T1 sequence (Q9UBN7 whole entry): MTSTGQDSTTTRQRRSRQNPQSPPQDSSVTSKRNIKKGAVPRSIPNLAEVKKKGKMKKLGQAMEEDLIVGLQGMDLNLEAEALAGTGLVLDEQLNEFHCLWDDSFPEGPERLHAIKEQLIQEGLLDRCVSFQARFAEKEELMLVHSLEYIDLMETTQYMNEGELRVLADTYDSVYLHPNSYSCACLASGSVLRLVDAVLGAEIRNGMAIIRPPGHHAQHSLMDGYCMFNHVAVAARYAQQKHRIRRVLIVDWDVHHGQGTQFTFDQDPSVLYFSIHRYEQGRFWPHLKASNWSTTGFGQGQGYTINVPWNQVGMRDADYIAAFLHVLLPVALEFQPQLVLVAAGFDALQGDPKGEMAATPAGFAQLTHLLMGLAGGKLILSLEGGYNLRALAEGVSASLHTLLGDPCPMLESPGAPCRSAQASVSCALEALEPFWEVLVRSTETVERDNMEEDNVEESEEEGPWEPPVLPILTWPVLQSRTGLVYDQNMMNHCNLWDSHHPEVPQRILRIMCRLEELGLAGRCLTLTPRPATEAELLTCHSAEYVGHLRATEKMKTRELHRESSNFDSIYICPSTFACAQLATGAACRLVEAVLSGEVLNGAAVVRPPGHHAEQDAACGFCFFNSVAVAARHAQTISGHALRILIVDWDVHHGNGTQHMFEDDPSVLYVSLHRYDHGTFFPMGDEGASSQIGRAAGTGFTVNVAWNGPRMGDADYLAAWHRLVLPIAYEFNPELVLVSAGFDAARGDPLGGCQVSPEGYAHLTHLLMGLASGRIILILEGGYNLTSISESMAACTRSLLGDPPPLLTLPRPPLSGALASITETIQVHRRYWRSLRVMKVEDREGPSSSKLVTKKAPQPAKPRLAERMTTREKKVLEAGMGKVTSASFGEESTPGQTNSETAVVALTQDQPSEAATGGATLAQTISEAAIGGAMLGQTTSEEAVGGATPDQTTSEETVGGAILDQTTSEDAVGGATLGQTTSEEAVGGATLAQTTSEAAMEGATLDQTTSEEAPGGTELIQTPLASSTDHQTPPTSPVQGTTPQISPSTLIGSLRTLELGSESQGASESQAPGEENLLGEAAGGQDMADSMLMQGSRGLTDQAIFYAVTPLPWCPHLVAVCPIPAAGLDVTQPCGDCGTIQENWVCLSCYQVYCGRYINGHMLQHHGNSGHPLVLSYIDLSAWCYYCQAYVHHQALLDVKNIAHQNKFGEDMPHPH

| SMILES | pEC50 (HepG2) | pEC50 (A549) | pEC50 (HCT-116) | pEC50 (PC-3) | IC50 (Histone deacetylase) [µM] | Ratio IC50 (Homo sapiens [1]) | Ratio IC50 (Homo sapiens [2]) | pIC50 (Histone deacetylase 4) | pIC50 (Histone deacetylase 1) | pIC50 [3] |
| --- | --- | --- | --- | --- | --- | --- | --- | --- | --- | --- |
| O=C(/C=C/c1ccc(CN(CCOc2ccccc2)Cc2ccc(-c3ccccc3)cc2)o1)NO | 4.74 | 4.58 | 5.02 | 4.80 | 1.21 |  |  |  |  |  |
| CCCN(CCc1ccc2c(c1)OCO2)Cc1ccc(/C=C/C(=O)NO)o1 | 4.54 | 4.30 | 4.80 | 5.12 | 1.59 |  |  |  |  |  |
| O=C(/C=C/c1ccc(CN(CCCCOc2ccccc2)CCc2ccc3c(c2)OCO3)o1)NO | 4.01 | 4.33 | 4.45 | 4.81 | 1.57 |  |  |  |  |  |
| Cc1ccc(OCCCCN(Cc2ccccc2)Cc2ccc(/C=C/C(=O)NO)o2)cc1 | 4.79 | 5.01 | 5.25 | 4.80 | 1.31 | 23.1 | 8.63 | 4.90 | 5.33 | 6.26 |
| CC(C)N(Cc1ccc(-c2ccccc2)cc1)Cc1ccc(/C=C/C(=O)NO)o1 | 4.81 | 4.81 | 5.56 | 4.62 | 1.61 |  |  |  |  |  |
| CC(C)N(Cc1ccccc1)Cc1ccc(/C=C/C(=O)NO)o1 | 4.17 | 4.46 | 4.64 | 4.57 | 0.18 | 11.6 | 6.94 | 5.40 | 5.63 | 6.47 |
| Cc1ccc(OCCN(Cc2ccccc2)Cc2ccc(/C=C/C(=O)NO)o2)cc1 | 4.89 | 4.28 | 4.83 | 4.29 | 1.87 | 21.8 | 10 | 4.17 | 4.50 | 5.50 |
| O=C(/C=C/c1ccc(CN(CCCOc2ccccc2)Cc2ccc(-c3ccccc3)cc2)o1)NO | 4.89 | 4.78 | 5.69 | 4.60 | > 2.07 |  |  |  |  |  |
| Cc1ccc(OCCN(Cc2ccc(-c3ccccc3)cc2)Cc2ccc(/C=C/C(=O)NO)o2)cc1 | 4.71 | 4.64 | 5.16 | 4.73 | 1.71 | 7.95 | 3.59 | 5.04 | 5.39 | 5.94 |
| O=C(/C=C/c1ccc(CN(CCc2ccc3c(c2)OCO3)Cc2ccccc2)o1)NO | 4.14 | 4.45 | 4.04 | 4.46 | 2.28 |  |  |  |  |  |
| O=C(/C=C/c1ccc(CN(CCCOc2ccccc2)CCc2ccc3c(c2)OCO3)o1)NO | 3.96 | 4.79 | 4.43 | 4.73 | > 2.22 |  |  |  |  |  |

The next lines start with the values.

| pEC50 (HepG2) | pEC50 (A549) | pEC50 (HCT-116) | pEC50 (PC-3) | IC50 (Histone deacetylase) [µM] | Ratio IC50 (Homo sapiens [1]) | Ratio IC50 (Homo sapiens [2]) | pIC50 (Histone deacetylase 4) | pIC50 (Histone deacetylase 1) | pIC50 [3] | SMILES |
| --- | --- | --- | --- | --- | --- | --- | --- | --- | --- | --- |
| 4.26 | 4.11 | 4.77 | 4.48 | > 2.69 |  |  |  |  |  | CCCCN(CCc1ccc2c(c1)OCO2)Cc1ccc(/C=C/C(=O)NO)o1 |
| 4.80 | 4.81 | 5.56 | 4.42 | > 1.96 |  |  |  |  |  | Cc1ccc(OCCCCN(Cc2ccc(-c3ccccc3)cc2)Cc2ccc(/C=C/C(=O)NO)o2)cc1 |
| 4.17 | 4.43 | 4.51 | 4.62 | 2.36 |  |  |  |  |  | O=C(/C=C/c1ccc(CN(CCOc2ccccc2)CCc2ccc3c(c2)OCO3)o1)NO |
| 4.18 | 4.14 | 4.13 | 4.43 | 3.49 |  |  |  |  |  | CCCCCN(CCc1ccc2c(c1)OCO2)Cc1ccc(/C=C/C(=O)NO)o1 |
| 4.83 | 4.59 | 5.14 | 4.35 | 1.48 | 15.6 | 8.21 | 4.91 | 5.19 | 6.10 | O=C(/C=C/c1ccc(CN(CCCOc2ccccc2)Cc2ccccc2)o1)NO |
